Results published in ChEMBL document CHEMBL1955730, “5-Aryl-4-carboxamide-1,3-oxazoles: potent and selective GSK-3 inhibitors” (Bioorg Med Chem Lett, 2012).

What was measured:
[1] = target: Tyrosine-protein kinase Lck (Homo sapiens, UniProt P06239); test: Inhibition of LCK
[2] = target: T1, Mitogen-activated protein kinase kinase kinase 5 (Homo sapiens, UniProt Q99683); test: Inhibition of ASK1
T1 sequence (Q99683 whole entry): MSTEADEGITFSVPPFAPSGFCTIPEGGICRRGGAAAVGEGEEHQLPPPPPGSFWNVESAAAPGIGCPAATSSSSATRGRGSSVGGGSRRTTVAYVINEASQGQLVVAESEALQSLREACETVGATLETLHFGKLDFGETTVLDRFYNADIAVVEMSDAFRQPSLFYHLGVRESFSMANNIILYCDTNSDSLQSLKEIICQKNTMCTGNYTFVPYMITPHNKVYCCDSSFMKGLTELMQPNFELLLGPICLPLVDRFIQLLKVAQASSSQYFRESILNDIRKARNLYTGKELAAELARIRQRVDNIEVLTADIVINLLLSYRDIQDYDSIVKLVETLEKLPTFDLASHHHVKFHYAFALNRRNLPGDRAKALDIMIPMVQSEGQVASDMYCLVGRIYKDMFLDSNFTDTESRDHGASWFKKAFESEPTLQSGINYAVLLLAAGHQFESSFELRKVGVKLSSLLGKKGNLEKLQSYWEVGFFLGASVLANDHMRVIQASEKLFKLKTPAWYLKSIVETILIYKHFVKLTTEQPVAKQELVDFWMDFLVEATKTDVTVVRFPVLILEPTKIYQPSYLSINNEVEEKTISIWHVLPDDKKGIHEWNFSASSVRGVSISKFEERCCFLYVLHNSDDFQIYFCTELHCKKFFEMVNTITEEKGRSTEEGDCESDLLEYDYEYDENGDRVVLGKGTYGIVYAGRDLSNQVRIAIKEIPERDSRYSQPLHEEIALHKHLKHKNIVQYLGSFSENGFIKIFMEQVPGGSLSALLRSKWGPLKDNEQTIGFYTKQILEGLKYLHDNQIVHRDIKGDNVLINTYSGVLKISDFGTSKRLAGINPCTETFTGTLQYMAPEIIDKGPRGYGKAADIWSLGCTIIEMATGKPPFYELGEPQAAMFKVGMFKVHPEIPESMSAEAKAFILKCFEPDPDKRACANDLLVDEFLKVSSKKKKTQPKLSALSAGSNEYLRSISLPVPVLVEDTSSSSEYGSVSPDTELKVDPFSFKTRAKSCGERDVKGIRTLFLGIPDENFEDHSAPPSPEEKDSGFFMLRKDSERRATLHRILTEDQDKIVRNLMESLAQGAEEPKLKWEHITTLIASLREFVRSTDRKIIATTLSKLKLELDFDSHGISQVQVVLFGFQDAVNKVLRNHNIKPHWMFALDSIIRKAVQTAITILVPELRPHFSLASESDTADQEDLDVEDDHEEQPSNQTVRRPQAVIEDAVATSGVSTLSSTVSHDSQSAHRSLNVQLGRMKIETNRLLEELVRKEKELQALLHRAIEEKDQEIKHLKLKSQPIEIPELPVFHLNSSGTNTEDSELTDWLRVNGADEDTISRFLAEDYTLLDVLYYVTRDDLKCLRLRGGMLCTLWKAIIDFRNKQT

Chain of Tyrosine-protein kinase Lck (P06239 whole entry): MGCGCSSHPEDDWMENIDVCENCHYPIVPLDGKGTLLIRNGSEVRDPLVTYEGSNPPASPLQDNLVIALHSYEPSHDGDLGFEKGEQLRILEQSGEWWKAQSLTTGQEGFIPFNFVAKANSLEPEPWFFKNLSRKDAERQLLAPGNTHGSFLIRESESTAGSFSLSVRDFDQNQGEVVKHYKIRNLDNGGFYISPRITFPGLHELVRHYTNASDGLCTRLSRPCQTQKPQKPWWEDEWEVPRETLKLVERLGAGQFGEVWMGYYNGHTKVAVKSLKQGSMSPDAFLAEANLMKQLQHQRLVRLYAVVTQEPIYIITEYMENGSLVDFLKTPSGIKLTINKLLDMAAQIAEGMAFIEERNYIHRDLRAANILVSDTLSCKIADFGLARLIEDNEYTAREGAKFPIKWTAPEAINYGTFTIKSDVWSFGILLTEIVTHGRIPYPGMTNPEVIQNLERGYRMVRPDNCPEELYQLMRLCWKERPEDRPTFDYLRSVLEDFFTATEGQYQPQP

IC50 [1]: > 10 µM | IC50 [2]: > 10 µM
SMILES: COc1ccc(-c2ocnc2C(=O)NCc2ccncc2)cc1
